The values that follow come from patent publication EP3275863A1, “COMPOUNDS FOR TREATING CONGENITAL DISORDERS OF GLYCOSYLATION” (Universidad Autónoma de Madrid, priority 2016, dated 2018).

One test deals with T1, pure WT-PMM2 (Homo sapiens, UniProt O15305).
T1 construct: His6 (N); made in house; host or cells: E. coli BL21 Star DE3
T1 sequence (O15305 1-246): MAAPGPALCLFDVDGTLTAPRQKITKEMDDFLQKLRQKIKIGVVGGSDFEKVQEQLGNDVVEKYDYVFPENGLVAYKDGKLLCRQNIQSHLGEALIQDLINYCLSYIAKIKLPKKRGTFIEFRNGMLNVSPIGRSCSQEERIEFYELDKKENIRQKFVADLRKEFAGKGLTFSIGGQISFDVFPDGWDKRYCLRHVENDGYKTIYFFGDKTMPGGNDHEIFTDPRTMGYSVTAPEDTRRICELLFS
The test can be described thus: Inhibitory effect (IC50) on pure enzyme, coupled spectrophotometric activity assay. To be noted: 2.5 mM was the maximum concentration used. In kind it is biochemical. Here is the method:
Given that the description of most of the described pharmacological chaperones has a competitive inhibitory effect for the target enzyme, we decided to analyze Compound A's IC50.
For the calculation of IC50 values, pure WT-PMM2 was used. Fifty nanograms of Nanodrop-measured pure dimeric PMM2 (molar extinction coefficient 23755 M^-1 cm^-1) were incubated with 1 µl of the compound at different concentrations, along with 0.5% BSA for 10 min at 30°C. After that time, the activity assays were performed by a spectrophotometric method based on the NADPH determination at 340 nm produced by a chain reaction of different coupled enzymes and the final production of […] by Glucose-6P-dehydrogenase enzyme (de Koning et al., 1998; Van Schaftingen y Jaeken, 1995). The corresponding DMSO controls were included in the assay. The IC50 values for the inhibitory compound were calculated using non-linear regression (GraphPad Prism 6 software) by plotting the log concentration of the compound (M) versus WT-PMM2 enzyme activity (%).

The target in the next test is T2, p.Asp65Tyr (Homo sapiens, UniProt O15305, D65Y).
T2 construct: His6 (N); made in house; host or cells: RTS 100 E. coli HY cell-free transcription-translation system
T2 sequence (O15305 1-246 D65Y): T1 sequence (O15305 1-246) with D65Y
The test can be described thus: Degradation time course (half-life) in prokaryotic transcription-translation-coupled system. To be noted: compound at 80µM. In kind it is biochemical. Here is the method: In order to deepen in the effect of Compound A on the PMM2 stability, degradation time courses were analyzed on WT protein and folding mutants with residual activity, p.Asp65Tyr, p.Arg162Trp and p.Thr237Met in presence of the compound. Additionally, we included in this assay the dimeric mutant p.Pro113Leu in order to study the effect of the compound on a mutant of this type.
Dimeric PMM2 used for thermal stability analysis was produced by the RTS 100 E. coli HY Kit transcription-translation-coupled system (5 PRIME, Hilden, Germany), following the manufacturer's recommendations. To produce PMM2 proteins, the reaction mix provided by the kit, together with 500 ng of the corresponding expression vector and 1 µl of the compound for reaching a final concentration of 40µM or 80µM or 1µl of DMSO. Reactions were incubated for 30 min at 30°C. The reaction was then stopped by adding 1 µl of DNase (1 mg/mL) and 1 µl of RNase (1 mg/mL). It was then further incubated at 37°C and 1.5 µl aliquots removed at different times. The compound was therefore present during the folding process. Proteins were immunodetected by Western blot and relative amounts of protein were determined by densitometry for the half-life determination.

A further test deals with T3, p.Thr237Met mutant (Homo sapiens, UniProt O15305, T237M).
T3 construct: His6 (N); made in house; host or cells: E. coli BL21 Star DE3
T3 sequence (O15305 1-246 T237M): T1 sequence (O15305 1-246) with T237M
Description: DSF thermal stability of purified homodimeric mutant. The following applies: 80µM of the compound. In kind it is binding. Here is the method: (§1) The effect of Compound A on the stability of different PMM2 folding mutants was studied by DSF. The selected mutants were the folding mutants, p.Val44AIa, p.Asp65Tyr, p.Arg162Trp, p.Thr237Met and p.Cys241Ser and the catalytic and folding mutants, p.Arg123Gln and p.Arg141His as previously described. The effect was studied at 40 µM and 80 µM compound concentration over the thermal stability of the purified homodimeric mutants by DSF.
(§2) In this case, the DSF was performed in a final reaction volume of 50 µl, containing 0.075 mg/ml of pure PMM2 protein in Hepes 20 mM, NaCl 200 mM, SYPRO Orange 5X, 1 µl of the hit compound and 2% DMSO in a LightCycler Multiwell Plate 96 (Roche).

For another test, the target named is T4, p.Arg123Gln mutant (Homo sapiens, UniProt O15305, R123Q).
T4 construct: His6 (N); made in house; host or cells: E. coli BL21 Star DE3
T4 sequence (O15305 1-246 R123Q): T1 sequence (O15305 1-246) with R123Q
The test is described as above. The test is classed as binding. The following applies: at both concentrations (40 µM and 80 µM). Here is the method: as §1, §2

The target of a further test is T5, p.Asp65Tyr mutant (Homo sapiens, UniProt O15305, D65Y).
T5 construct: His6 (N); made in house; host or cells: E. coli BL21 Star DE3
T5 sequence (O15305 1-246 D65Y): T1 sequence (O15305 1-246) with D65Y
Described as above. The following applies: 80µM of the compound. In kind it is binding. Here is the method: as §1, §2

Changes are numbered by the printed parent chain.

As to `O=C(Nc1cccc(Cl)c1)N(c1ccccn1)c1ccccn1` [Compound A, 3-(3-Chloro-phenyl)-1,1-di-pyridin-2-yl-urea], the “inhibitory effect on the activity of the pure WT-PMM2 protein” value against pure WT-PMM2 is “no inhibitory effect”. The “half-life increase, ranking among protein/concentration combinations” value at p.Asp65Tyr is given as “the one with the higher shift”. In addition, the “Tm compared with WT-PMM2 basal Tm” value at p.Thr237Met mutant, at p.Arg123Gln mutant and at p.Asp65Tyr mutant was “reached the WT-PMM2 basal Tm” throughout.
